Columns and labels:
Human Calpain 1/NS1 = target: T1, Human Calpain 1/NS1 (Homo sapiens, UniProt P07384); test: Biochemical inhibition of calpain 1, continuous fluorescence (FRET substrate) assay; conditions: mean, read-out: Human Calpain 1/NS1 IC50 (nM)_MEAN
T1 sequence (P07384 1-714): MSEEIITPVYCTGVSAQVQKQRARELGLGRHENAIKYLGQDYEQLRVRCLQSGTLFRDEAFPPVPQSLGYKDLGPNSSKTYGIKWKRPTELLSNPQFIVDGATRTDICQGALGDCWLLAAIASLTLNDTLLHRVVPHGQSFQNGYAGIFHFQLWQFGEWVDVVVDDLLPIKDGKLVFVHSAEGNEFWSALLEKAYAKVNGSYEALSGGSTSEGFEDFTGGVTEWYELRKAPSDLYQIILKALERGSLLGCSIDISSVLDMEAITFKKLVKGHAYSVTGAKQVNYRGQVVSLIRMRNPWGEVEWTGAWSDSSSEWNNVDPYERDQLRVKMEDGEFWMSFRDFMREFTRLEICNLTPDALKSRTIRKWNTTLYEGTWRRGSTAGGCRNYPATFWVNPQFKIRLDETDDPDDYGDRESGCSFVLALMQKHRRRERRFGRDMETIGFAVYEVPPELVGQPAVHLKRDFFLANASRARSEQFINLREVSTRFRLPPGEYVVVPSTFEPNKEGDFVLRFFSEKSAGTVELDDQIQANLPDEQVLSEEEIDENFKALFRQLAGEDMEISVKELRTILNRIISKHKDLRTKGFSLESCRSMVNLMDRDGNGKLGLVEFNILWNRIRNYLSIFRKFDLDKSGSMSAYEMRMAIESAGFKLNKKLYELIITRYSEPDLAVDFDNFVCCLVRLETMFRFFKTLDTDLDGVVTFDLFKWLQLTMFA
T1 sequence (P04632 1-268 partner): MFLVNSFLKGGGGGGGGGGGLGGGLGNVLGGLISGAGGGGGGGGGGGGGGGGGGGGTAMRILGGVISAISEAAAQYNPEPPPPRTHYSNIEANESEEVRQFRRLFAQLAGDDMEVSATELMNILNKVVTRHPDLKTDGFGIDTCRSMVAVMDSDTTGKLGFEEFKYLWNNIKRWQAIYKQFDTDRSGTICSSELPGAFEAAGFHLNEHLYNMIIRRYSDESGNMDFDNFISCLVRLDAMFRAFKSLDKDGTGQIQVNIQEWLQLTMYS
Outline: (§1)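 IC50 values come from 4-parameter fits of progress-curve rates (1-5 min slopes) against log inhibitor concentration. Calpain and inhibitor premixed at ambient 25C in Tris pH ~7.5/NaCl/DTT buffer, then CaCl2 and FRET substrate added to activate; 5-FAM fluorescence (ex 490/em 520) followed 10 min.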

Human Calpain 2/NS1 = target: T2, Human Calpain 2/NS1 (Homo sapiens, UniProt P17655); test: Biochemical inhibition of calpain 2, continuous fluorescence (FRET substrate) assay; conditions: mean, read-out: Human Calpain 2/NS1 IC50 (nM)_MEAN
T2 sequence (P17655 1-700): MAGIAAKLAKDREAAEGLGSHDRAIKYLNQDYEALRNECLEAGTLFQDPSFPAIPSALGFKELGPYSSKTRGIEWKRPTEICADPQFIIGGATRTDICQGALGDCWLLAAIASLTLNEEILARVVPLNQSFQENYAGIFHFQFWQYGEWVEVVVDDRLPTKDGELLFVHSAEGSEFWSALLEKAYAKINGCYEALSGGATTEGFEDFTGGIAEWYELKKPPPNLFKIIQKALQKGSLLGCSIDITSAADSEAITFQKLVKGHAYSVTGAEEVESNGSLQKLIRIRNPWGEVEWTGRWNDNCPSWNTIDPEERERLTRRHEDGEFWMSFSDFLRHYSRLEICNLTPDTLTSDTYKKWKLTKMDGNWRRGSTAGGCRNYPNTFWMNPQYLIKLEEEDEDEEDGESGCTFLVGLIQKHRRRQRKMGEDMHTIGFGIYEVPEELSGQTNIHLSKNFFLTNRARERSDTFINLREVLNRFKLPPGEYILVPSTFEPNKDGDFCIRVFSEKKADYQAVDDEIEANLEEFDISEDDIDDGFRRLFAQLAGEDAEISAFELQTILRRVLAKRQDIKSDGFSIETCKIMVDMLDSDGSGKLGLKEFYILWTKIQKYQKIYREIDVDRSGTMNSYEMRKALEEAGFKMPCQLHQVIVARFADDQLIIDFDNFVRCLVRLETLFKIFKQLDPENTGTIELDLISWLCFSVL
T2 sequence (P04632 1-268 partner): T1 sequence (P04632 1-268 partner)
Outline: as §1

Human Calpain 9/NS1 = target: T3, Human Calpain 9/NS1 (Homo sapiens, UniProt O14815); test: Biochemical inhibition of calpain 9, continuous fluorescence (FRET substrate) assay; conditions: mean, read-out: Human Calpain 9/NS1 IC50 (nM)_MEAN
T3 sequence (O14815 1-690): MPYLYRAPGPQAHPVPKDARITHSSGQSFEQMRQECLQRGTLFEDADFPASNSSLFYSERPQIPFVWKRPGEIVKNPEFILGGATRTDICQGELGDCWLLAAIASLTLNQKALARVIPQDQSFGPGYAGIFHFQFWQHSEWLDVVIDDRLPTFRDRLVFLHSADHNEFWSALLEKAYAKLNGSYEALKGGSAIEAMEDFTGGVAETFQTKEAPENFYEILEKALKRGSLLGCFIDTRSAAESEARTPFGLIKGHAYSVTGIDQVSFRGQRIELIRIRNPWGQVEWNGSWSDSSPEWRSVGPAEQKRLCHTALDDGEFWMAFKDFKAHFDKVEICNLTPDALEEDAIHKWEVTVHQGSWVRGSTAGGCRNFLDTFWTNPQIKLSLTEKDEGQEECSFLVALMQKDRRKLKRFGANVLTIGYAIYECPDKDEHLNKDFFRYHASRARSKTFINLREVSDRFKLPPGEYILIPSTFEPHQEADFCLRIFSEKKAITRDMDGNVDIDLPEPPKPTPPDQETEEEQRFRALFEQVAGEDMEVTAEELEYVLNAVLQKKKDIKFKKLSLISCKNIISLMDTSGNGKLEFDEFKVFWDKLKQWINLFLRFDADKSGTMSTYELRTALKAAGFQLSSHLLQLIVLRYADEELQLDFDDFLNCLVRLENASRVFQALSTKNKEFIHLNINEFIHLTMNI
T3 sequence (P04632 1-268 partner): T1 sequence (P04632 1-268 partner)
Outline: as §1

Compound	IC50 (Human Calpain 1/NS1) [nM]	IC50 (Human Calpain 2/NS1) [nM]	IC50 (Human Calpain 9/NS1) [nM]
CON(C)C(=O)[C@@H]1C/C=C/CCOc2ccnc(n2)-c2ccccc2C(=O)N1 [Compound 135, (S,E)-N-methoxy-N-methyl-3-oxo-11-oxa-4-aza-1(2,4)-pyrimidina-2(1,2)-benzenacycloundecaphan-7-ene-5-carboxamide]	> 10000	> 10000	> 10000
O=C(NC1CC1)C(=O)[C@@H]1Cc2ccc(cc2)OCCCCOc2cccc(c2)-c2ccn(n2)-c2ncccc2C(=O)N1 [Compound 72, N-cyclopropyl-2-oxo-2-((6S,E)-4-oxo-2^1H-9,14-dioxa-5-aza-3(2,3)-pyridina-2(3,1)-pyrazola-1(1,3),8(1,4)-dibenzenacyclotetradecaphane-6-yl)acetamide]	< 3000	< 3000	< 3000
CCCCNC(=O)C(=O)[C@@H]1C/C=C/COCCOCc2ccccc2C(=O)N1 [Compound 64, (S,E)-N-butyl-2-oxo-2-(12-oxo-1,3,4,6,9,10,11,12-octahydrobenzo[f][1,4]dioxa[9]azacyclotetradecin-10-yl)acetamide]	> 10000	> 10000	< 3000
O=C[C@@H]1CC=CCCCCCc2ncccc2C(=O)N1 [Compound 50, (S)-5-Oxo-6,7,8,11,12,13,14,15-octahydro-5h-pyrido[3,2-c][1]aza-cyclotridecine-7-carbaldehyde]	> 10000	3000 to 10000	< 3000
NC(=O)C(=O)[C@@H]1CCCCCOc2cccc(c2)-c2ncccc2C(=O)N1 [Compound 130, (S)-2-oxo-2-(11-oxo-3-oxa-10-aza-1(2,3)-pyridina-2(1,3)-benzena-cycloundecaphane-9-yl)acetamide]	< 3000	< 3000	< 3000
O=C[C@@H]1Cc2ccc(cc2)OCC=CCOc2ccc3nn(cc3c2)-c2ncccc2C(=O)N1 [Compound 71, (1^3Z,1^4E,5S)-3-oxo-1^2H-8,13-dioxa-4-aza-1(2,5)-indazola-2(2,3)-pyridina-7(1,4)-benzenacyclotridecaphan-10-ene-5-carbaldehyde]	< 3000	< 3000	< 3000
O=C(NCc1c(F)cccc1Cl)C(=O)C1CCCCOCCOCc2ccccc2C(=O)N1 (stereo not drawn) [Compound 107]	> 10000	> 10000	3000 to 10000
(S)-2-(1^3-methyl-11-oxo-1^1H-3-oxa-10-aza-1(1,5)-pyrazola-2(1,3)-benzenacycloundecaphane-9-yl)-2-oxoacetamide [Compound 143]	< 3000	< 3000	< 3000
O=C[C@@H]1C/C=C/COCCOCc2ccccc2C(=O)N1 [Compound 2, (S,E)-12-Oxo-1,3,4,6,9,10,11,12-octahydrobenzo[f][1,4]dioxa[9]azacyclotetradecine-10-carbaldehyde]	> 10000	> 10000	3000 to 10000
COc1cccc(CN(C)C(=O)C(=O)C2CCCCOCCOCc3ccccc3C(=O)N2)c1 (stereo not drawn) [Compound 116, N-(3-methoxybenzyl)-N-methyl-2-oxo-2-(12-oxo-1,3,4,6,7,8,9,10,11,12-decahydrobenzo[f][1,4]dioxa[9]azacyclotetradecin-10-yl)acetamide]	> 10000	> 10000	> 10000
O=C(NCCc1cccnc1)C(=O)C1CCCCOCCOCc2ccccc2C(=O)N1 (stereo not drawn) [Compound 101, 2-Oxo-2-(12-oxo-1,3,4,6,7,8,9,10,11,12-decahydrobenzo[f][1,4]dioxa[9]aza-cyclotetradecin-10-yl)-N-(2-(pyridin-3-yl)ethyl)acetamide]	> 10000	> 10000	3000 to 10000
O=C[C@@H]1CC=CCCCOCc2ccccc2C(=O)N1 [Compound 41, (S)-11-Oxo-1,3,4,5,8,9,10,11-octahydrobenzo[c][1]oxa[6]azacyclotridecine-9-carbaldehyde]	> 10000	< 3000	< 3000
O=C(NCc1ccccc1)C(=O)[C@@H]1CC=CCCCCOc2ccccc2C(=O)N1 [Compound 7, (S)—N-benzyl-2-oxo-2-(11-oxo-2,3,4,5,8,9,10,11-octahydrobenzo[b][1]oxa[5]azacyclotridecin-9-yl)acetamide]	> 10000	> 10000	3000 to 10000
O=C(NCc1ccc(OC(F)(F)F)cc1)C(=O)C1CCCCOCCOCc2ccccc2C(=O)N1 (stereo not drawn) [Compound 87, 2-Oxo-2-(12-oxo-1,3,4,6,7,8,9,10,11,12-decahydrobenzo[f][1,4]dioxa[9]aza-cyclotetradecin-10-yl)-N-(4-(trifluoromethoxy)benzyl)acetamide]	> 10000	> 10000	< 3000
O=C(NCCc1ccccn1)C(=O)C1CCCCOCCOCc2ccccc2C(=O)N1 (stereo not drawn) [Compound 82, 2-Oxo-2-(12-oxo-1,3,4,6,7,8,9,10,11,12-decahydrobenzo[f][1,4]dioxa[9]aza-cyclotetradecin-10-yl)-N-(2-(pyridin-2-yl)ethyl)acetamide]	> 10000	> 10000	3000 to 10000
O=C[C@@H]1CCCCCCCCCCc2ccccc2C(=O)N1 [Compound 28, (S)-1-Oxo-2,3,4,5,6,7,8,9,10,11,12,13-dodecahydro-1h-benzo[c][1]aza-cyclopentadecine-3-carbaldehyde]	< 3000	< 3000	< 3000
CC(C)(NC(=O)C(=O)C1CCCCOCCOCc2ccccc2C(=O)N1)c1cccnc1 (stereo not drawn) [Compound 124, 2-Oxo-2-(12-oxo-1,3,4,6,7,8,9,10,11,12-decahydrobenzo[f][1,4]dioxa[9]azacyclotetradecin-10-yl)-N-(2-(pyridin-3-yl)propan-2-yl)acetamide]	> 10000	> 10000	> 10000
O=C[C@@H]1CCCCCCOc2ccnc(n2)-c2ccccc2C(=O)N1 [Compound 133, (S)-3-oxo-12-oxa-4-aza-1(2,4)-pyrimidina-2(1,2)-benzenacyclododecaphane-5-carbaldehyde]	< 3000	< 3000	< 3000

Reference: patent US11292801B2, “Calpain modulators and therapeutic uses thereof” (Blade Therapeutics, Inc., priority 2016, dated 2022)
